# Assay results: ChEMBL document CHEMBL1145992, “N6-substituted D-4'-thioadenosine-5'-methyluronamides: potent and selective agonists at the human A3 adenosine receptor” (J Med Chem, 2003)
# Key:
# Adenosine receptor A3 = biological target: T1, Adenosine receptor A3 (Homo sapiens, UniProt P0DMS8); test: Inhibitory concentration against human Adenosine A3 receptor mediated inhibition of cyclic AMP in transfected CHO cells; format: functional, cell-based
# T1 sequence (P0DMS8 whole entry): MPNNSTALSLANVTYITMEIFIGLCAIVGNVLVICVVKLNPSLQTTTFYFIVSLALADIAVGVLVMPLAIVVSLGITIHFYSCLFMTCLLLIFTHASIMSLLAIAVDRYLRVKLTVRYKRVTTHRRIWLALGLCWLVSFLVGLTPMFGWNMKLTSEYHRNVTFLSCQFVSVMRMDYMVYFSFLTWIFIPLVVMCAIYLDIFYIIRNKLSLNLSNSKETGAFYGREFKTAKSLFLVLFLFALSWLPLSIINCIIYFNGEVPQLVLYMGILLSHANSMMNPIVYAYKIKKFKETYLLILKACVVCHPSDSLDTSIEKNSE
# [1] = biological target: Adenosine receptor A2a (Rattus norvegicus) (UniProt P30543); test: Percent displacement of [3H]-CGS-21,680 from rat adenosine A2A receptor in rat brain homogenates at 1 uM
# Adenosine receptor A2a (Rattus norvegicus), sequence (P30543 whole entry): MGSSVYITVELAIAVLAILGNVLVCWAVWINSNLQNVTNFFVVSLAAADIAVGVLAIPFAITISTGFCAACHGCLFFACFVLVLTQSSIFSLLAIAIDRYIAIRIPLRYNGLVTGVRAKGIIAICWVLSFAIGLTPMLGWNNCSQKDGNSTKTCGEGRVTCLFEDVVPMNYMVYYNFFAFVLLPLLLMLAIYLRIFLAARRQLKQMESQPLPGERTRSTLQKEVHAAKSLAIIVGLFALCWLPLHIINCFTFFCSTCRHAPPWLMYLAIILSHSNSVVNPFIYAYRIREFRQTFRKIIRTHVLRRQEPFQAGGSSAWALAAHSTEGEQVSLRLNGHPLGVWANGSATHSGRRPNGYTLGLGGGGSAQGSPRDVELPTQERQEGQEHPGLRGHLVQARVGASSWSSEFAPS
# Adenosine receptor A2a [2] = biological target: Adenosine receptor A2a (Homo sapiens, UniProt P29274); test: Binding affinity for human adenosine A2A receptor in CHO cells using [3H]CGS-21680; format: cell-based
# Adenosine receptor A2a (Homo sapiens, UniProt P29274), sequence (P29274 whole entry): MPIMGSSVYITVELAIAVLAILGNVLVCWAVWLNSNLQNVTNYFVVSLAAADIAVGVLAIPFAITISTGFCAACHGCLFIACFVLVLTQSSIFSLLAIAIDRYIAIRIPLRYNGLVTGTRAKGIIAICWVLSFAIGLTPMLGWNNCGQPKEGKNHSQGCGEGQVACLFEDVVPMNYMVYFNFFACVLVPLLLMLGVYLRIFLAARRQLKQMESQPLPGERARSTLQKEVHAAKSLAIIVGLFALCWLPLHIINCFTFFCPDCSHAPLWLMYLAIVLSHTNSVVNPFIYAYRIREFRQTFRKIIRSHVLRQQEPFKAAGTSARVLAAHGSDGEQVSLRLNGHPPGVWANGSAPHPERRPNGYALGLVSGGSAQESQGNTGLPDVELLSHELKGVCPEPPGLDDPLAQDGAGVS
# Adenosine receptor A2a [3] = biological target: Adenosine receptor A2a (Rattus norvegicus, UniProt P30543); test: Binding affinity for rat adenosine A2A receptor in rat brain homogenates using [3H]CGS-21680
# Adenosine receptor A2a (Rattus norvegicus, UniProt P30543), sequence (P30543 whole entry): as the sequence (P30543 whole entry) above
# Adenosine receptor A1 = biological target: T2, Adenosine receptor A1 (Rattus norvegicus, UniProt P25099); test: Binding affinity for rat Adenosine A1 receptor in rat brain homogenates using [3H]N6-(R)-phenylisopropyladenosine
# T2 sequence (P25099 whole entry): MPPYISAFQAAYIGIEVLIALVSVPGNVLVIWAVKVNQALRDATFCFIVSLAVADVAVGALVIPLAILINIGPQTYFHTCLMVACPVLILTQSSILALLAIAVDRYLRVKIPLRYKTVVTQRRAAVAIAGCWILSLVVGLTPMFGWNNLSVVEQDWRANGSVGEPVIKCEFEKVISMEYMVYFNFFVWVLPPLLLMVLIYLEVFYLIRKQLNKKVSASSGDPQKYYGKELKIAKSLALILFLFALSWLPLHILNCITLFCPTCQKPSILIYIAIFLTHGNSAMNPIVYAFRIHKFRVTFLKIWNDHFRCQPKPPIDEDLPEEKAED
smiles,measurement,setting,value
CNC(=O)[C@H]1S[C@@H](n2cnc3c(N)nc(Cl)nc32)[C@H](O)[C@@H]1O,IC50,Adenosine receptor A3,1 nM
same,Displacement,[1],< 10%
CNC(=O)[C@H]1S[C@@H](n2cnc3c(NCc4cccc(I)c4)nc(Cl)nc32)[C@H](O)[C@@H]1O,Ki,Adenosine receptor A2a [2],223 nM
same,Ki,Adenosine receptor A2a [3],348 nM
same,Ki,Adenosine receptor A1,140 nM
